Read-outs that look alike come from different tables or passages of the source.

One assay addresses T1, HiBit-BRM fusion protein (Homo sapiens, UniProt P51531).
T1 construct: expressed in transfected cells
The assay is described as follows: HiBiT-BRM cell-based degradation assay (Nano-Glo HiBiT lytic detection, 24 h). Particulars: HeLa cell line expressing HiBiT-BRM; for DC50: read-out: BRM HiBit Degradation IC50. The procedure:
(§1) Procedure: A stable HeLa cell line expressing HiBiT-BRM was generated. On day 0, 5000 cells were seeded in 40 μL of media into each well of 384-well cell culture plates. On day 1, cells were treated with 120 nL DMSO or 120 nL of 3-fold serially DMSO-diluted compounds (10 points in duplicate with 30 μM as final top dose). Subsequently plates were incubated for 24 h in a standard tissue culture incubator and equilibrated at room temperature for 15 minutes. Nano-GB HiBiT Lytic Detection System (Promega N3050) reagent was freshly prepared and 20 ul was added to each well. Upon addition of this LgBit-containing reagent, the HiBiT and LgBiT proteins associate to form the luminescent NanoBiT luciferase. The plates were shaken for 10 minutes at room temperature and the bioluminescence read using an EnVision plate reader (PerkinElmer).
(§2) The degradation % was calculated using the following formula: % degradation=100%−100%×(Lumsample−LuMLC)/(LuMHC−LuMLC). DMSO treated cells are employed as High Control (HC) and 2 μM of a known BRM/BRG1 degrader standard treated cells are employed as Low Control (LC).

For assay [1], the target named is T2, HiBit-BRG1 fusion protein (Homo sapiens, UniProt P51532).
T2 construct: expressed in transfected cells
Description: HiBiT-BRG1 cell-based degradation assay (Nano-Glo HiBiT lytic detection, 24 h). Particulars: for Dmax: read-out: BRG1 HiBit Degradation Maximum (%); for DC50: read-out: BRMG1 HiBit Degradation IC50. As for the experimental part:
as §1, with “On day 1, cells were treated with 120 nL DMSO or 120 nL of 3-fold serially DMSO-diluted compounds (10 points in duplicate with 30 μM as final top dose).” left out
For measurement of BRG1 degradation, a stable HeLa cell line expressing HiBit-BRG1 and LgBit was generated. The same protocol as above was then followed.
as §2

Where [2] appears, read: HeLa cell line expressing HiBit-BRG1 and LgBit.

T1 sequence (P51531 whole entry, the tested form may be a part): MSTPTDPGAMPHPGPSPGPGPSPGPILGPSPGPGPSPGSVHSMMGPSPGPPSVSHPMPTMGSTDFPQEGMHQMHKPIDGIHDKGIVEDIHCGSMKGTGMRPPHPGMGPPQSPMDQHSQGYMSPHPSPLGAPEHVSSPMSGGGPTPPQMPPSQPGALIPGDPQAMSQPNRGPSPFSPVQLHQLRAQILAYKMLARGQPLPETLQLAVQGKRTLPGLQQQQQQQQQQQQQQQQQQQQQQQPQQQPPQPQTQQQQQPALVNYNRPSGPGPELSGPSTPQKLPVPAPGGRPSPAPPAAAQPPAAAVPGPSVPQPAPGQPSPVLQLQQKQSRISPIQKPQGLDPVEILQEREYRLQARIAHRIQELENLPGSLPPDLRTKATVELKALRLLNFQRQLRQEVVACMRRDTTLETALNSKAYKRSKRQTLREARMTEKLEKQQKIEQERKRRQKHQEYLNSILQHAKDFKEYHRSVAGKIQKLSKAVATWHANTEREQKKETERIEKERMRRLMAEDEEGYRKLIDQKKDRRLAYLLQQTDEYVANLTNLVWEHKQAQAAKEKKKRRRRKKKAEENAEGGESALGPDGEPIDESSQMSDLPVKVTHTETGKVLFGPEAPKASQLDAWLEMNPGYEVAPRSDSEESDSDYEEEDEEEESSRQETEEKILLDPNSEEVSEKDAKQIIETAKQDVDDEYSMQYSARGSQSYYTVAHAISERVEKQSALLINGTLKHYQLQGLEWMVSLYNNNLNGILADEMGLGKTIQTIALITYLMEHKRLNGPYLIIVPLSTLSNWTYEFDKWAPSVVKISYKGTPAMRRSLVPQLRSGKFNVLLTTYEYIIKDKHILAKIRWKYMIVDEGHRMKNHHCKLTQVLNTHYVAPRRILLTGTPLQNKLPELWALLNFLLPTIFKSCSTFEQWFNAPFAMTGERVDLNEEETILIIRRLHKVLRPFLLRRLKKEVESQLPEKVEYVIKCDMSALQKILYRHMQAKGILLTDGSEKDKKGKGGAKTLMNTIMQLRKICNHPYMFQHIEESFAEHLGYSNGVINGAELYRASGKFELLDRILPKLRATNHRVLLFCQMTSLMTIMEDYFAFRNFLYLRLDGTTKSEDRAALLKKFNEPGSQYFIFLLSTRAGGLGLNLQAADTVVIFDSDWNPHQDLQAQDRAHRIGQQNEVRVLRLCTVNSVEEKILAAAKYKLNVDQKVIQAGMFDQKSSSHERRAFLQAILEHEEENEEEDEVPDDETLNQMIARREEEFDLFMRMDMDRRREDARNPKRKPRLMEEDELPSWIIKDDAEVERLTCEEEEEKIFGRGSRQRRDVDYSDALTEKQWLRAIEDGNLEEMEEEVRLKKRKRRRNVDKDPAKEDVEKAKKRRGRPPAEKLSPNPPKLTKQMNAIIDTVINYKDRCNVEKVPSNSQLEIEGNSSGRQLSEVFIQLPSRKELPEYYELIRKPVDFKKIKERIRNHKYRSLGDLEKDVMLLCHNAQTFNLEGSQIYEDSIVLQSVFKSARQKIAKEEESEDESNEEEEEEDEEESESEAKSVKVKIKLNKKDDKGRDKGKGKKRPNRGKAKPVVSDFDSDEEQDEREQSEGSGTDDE
T2 sequence (P51532 whole entry, the tested form may be a part): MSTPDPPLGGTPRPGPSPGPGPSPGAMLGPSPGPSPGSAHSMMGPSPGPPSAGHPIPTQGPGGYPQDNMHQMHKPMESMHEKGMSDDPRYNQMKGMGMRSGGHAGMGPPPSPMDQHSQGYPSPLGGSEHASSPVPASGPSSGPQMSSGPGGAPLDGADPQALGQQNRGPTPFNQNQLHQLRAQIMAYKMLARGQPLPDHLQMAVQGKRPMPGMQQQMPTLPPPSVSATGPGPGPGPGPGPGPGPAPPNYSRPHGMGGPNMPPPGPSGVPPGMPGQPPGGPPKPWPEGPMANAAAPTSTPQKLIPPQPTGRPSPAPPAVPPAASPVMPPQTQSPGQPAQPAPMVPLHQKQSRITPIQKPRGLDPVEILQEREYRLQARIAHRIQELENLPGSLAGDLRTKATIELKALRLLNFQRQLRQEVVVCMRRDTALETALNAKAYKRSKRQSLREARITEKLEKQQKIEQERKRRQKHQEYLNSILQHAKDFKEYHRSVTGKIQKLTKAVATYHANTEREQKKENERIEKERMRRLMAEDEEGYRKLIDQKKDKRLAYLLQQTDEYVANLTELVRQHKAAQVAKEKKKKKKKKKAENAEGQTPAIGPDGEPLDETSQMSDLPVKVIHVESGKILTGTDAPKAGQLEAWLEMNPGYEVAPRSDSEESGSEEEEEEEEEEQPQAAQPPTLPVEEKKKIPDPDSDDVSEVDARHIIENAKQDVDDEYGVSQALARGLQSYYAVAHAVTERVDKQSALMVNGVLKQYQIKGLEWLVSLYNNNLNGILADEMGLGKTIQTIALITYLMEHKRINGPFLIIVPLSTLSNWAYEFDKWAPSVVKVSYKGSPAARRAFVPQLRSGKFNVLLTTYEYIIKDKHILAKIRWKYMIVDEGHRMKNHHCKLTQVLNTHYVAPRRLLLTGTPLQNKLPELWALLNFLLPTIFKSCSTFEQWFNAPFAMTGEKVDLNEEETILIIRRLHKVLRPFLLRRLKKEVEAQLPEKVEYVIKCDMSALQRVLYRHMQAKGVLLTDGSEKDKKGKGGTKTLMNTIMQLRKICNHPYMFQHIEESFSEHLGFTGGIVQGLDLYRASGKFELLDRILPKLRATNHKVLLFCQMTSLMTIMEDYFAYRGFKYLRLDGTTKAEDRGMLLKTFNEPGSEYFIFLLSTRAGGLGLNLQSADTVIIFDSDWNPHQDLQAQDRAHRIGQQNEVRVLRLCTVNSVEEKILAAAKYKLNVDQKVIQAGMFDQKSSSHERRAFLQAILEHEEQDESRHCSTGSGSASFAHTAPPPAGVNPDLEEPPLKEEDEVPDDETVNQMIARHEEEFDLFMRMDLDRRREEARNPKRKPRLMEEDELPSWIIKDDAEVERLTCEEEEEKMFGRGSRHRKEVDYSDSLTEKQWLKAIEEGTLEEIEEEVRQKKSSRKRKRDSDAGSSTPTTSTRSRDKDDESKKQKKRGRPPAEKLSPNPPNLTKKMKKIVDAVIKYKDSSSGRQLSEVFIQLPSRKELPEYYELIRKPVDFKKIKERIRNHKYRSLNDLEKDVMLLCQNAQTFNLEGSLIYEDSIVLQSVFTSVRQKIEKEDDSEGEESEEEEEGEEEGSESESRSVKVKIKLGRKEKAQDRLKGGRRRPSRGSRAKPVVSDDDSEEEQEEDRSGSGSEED

For the compound `Cc1ncsc1-c1ccc([C@H](C)NC(=O)[C@@H]2C[C@@H](O)CN2C(=O)[C@H](c2cc(-c3cnc(N4CCC(c5cc6nnc(-c7ccccc7O)cc6n5C)CC4)nc3)no2)C(C)C)cc1` [Compound 22, (2S,4R)-4-hydroxy-1-((S)-2-(3-(2-(4-(3-(2-hydroxyphenyl)-5-methyl-5H-pyrrolo[3,2-c]pyridazin-6-yl)piperidin-1-yl)pyrimidin-5-yl)isoxazol-5-yl)-3-methylbutanoyl)-N—((S)-1-(4-(4-methylthiazol-5-yl)phenyl)ethyl)pyrrolidine-2-carboxamide], at HiBit-BRM fusion protein, the “BRM HiBit Degradation Maximum (%)” value is “B (“B” indicates maximum degradation ≥50%)” and the DC50 was over 100 nM. Besides, the Dmax in assay [1] (HeLa) is under 50%.

As to `CCn1c(C2CCN(c3ncc(-c4cc([C@H](C(=O)N5C[C@H](O)C[C@H]5C(=O)N[C@@H](C)c5ccc(-c6scnc6C)cc5)C(C)C)on4)cn3)CC2)cc2nnc(-c3ccccc3O)cc21` [Compound 23, (2S,4R)-1-[(2R)-2-[3-(2-{4-[5-ethyl-3-(2-hydroxyphenyl)pyrrolo[3,2-c]pyridazin-6-yl]piperidin-1-yl}pyrimidin-5-yl)-1,2-oxazol-5-yl]-3-methylbutanoyl]-4-hydroxy-N-[(1S)-1-[4-(4-methyl-1,3-thiazol-5-yl)phenyl]ethyl]pyrrolidine-2-carboxamide], on HiBit-BRM fusion protein, the “BRM HiBit Degradation Maximum (%)” value is on record as “A (“A” indicates maximum degradation ≥75%)” and the DC50 was under 10 nM. In assay [1] (setting [2]), the Dmax was over 50% and the DC50 is over 10 nM.

In the case of `CCn1c(C2CCN(c3ncc(-c4cc([C@@H](C(=O)N5C[C@H](O)C[C@H]5C(=O)N[C@@H](C)c5ccc(-c6scnc6C)cc5)C(C)C)on4)cn3)CC2)cc2nnc(-c3ccccc3O)cc21` [Compound 24, (2S,4R)-1-[(2S)-2-[3-(2-{4-[5-ethyl-3-(2-hydroxyphenyl)pyrrolo[3,2-c]pyridazin-6-yl]piperidin-1-yl}pyrimidin-5-yl)-1,2-oxazol-5-yl]-3-methylbutanoyl]-4-hydroxy-N-[(1S)-1-[4-(4-methyl-1,3-thiazol-5-yl)phenyl]ethyl]pyrrolidine-2-carboxamide], at HiBit-BRM fusion protein, the “BRM HiBit Degradation Maximum (%)” value is recorded as “B (“B” indicates maximum degradation ≥50%)” and the DC50 is over 10 nM. Also, the Dmax in assay [1] (setting [2]) is under 50%.

`Cc1ncsc1-c1ccc([C@H](C)NC(=O)[C@@H]2C[C@@H](O)CN2C(=O)[C@@H](c2cc(-c3cnc(N4CCC(c5cc6nnc(-c7ccccc7O)cc6n5C5CC5)CC4)nc3)no2)C(C)C)cc1` [Compound 25, (2S,4R)-1-[(2R)-2-[3-(2-{4-[5-cyclopropyl-3-(2-hydroxyphenyl)pyrrolo[3,2-c]pyridazin-6-yl]piperidin-1-yl}pyrimidin-5-yl)-1,2-oxazol-5-yl]-3-methylbutanoyl]-4-hydroxy-N-[(1S)-1-[4-(4-methyl-1,3-thiazol-5-yl)phenyl]ethyl]pyrrolidine-2-carboxamide]: on HiBit-BRM fusion protein, the “BRM HiBit Degradation Maximum (%)” value was “A (“A” indicates maximum degradation ≥75%)” and the DC50 was under 10 nM. For the same compound, the Dmax in assay [1] (setting [2]) was under 50%.

With `Cc1ncsc1-c1ccc([C@H](C)NC(=O)[C@@H]2C[C@@H](O)CN2C(=O)[C@H](c2cc(-c3cnc(N4CCC(c5cc6nnc(-c7ccccc7O)cc6n5C5CC5)CC4)nc3)no2)C(C)C)cc1` [Compound 26, (2S,4R)-1-[(2S)-2-[3-(2-{4-[5-cyclopropyl-3-(2-hydroxyphenyl)pyrrolo[3,2-c]pyridazin-6-yl]piperidin-1-yl}pyrimidin-5-yl)-1,2-oxazol-5-yl]-3-methylbutanoyl]-4-hydroxy-N-[(1S)-1-[4-(4-methyl-1,3-thiazol-5-yl)phenyl]ethyl]pyrrolidine-2-carboxamide], the “BRM HiBit Degradation Maximum (%)” value on HiBit-BRM fusion protein is “C (“C” indicates maximum degradation <50%)”. For the same compound, the Dmax in assay [1] (setting [2]) was under 50%.

On to `Cc1ncsc1-c1ccc([C@H](C)NC(=O)[C@@H]2C[C@@H](O)CN2C(=O)[C@@H](c2cc(OCCN3CCN(c4cc5nnc(-c6ccccc6O)cc5n4C)CC3)no2)C(C)C)cc1` [Compound 27, (2S,4R)-4-hydroxy-1-[(2R)-2-[3-(2-{4-[3-(2-hydroxyphenyl)-5-methylpyrrolo[3,2-c]pyridazin-6-yl]piperazin-1-yl}ethoxy)-1,2-oxazol-5-yl]-3-methylbutanoyl]-N-[(1S)-1-[4-(4-methyl-1,3-thiazol-5-yl)phenyl]ethyl]pyrrolidine-2-carboxamide], for which, at HiBit-BRM fusion protein, the “BRM HiBit Degradation Maximum (%)” value is reported as “A (“A” indicates maximum degradation ≥75%)” and the DC50 is under 10 nM. Also, in assay [1] (setting [2]), the Dmax was over 75% and the DC50 is over 10 nM.

Turning to `Cc1ncsc1-c1ccc([C@H](C)NC(=O)[C@@H]2C[C@@H](O)CN2C(=O)[C@@H](c2cc(-c3cnc(N4CCN(c5cc6nnc(-c7ccccc7O)cc6n5C)CC4)nc3)no2)C(C)C)cc1` [Compound 28, (2S,4R)-4-hydroxy-1-[(2R)-2-[3-(2-{4-[3-(2-hydroxyphenyl)-5-methylpyrrolo[3,2-c]pyridazin-6-yl]piperazin-1-yl}pyrimidin-5-yl)-1,2-oxazol-5-yl]-3-methylbutanoyl]-N-[(1S)-1-[4-(4-methyl-1,3-thiazol-5-yl)phenyl]ethyl]pyrrolidine-2-carboxamide], at HiBit-BRM fusion protein, the “BRM HiBit Degradation Maximum (%)” value is reported as “A (“A” indicates maximum degradation ≥75%)” and the DC50 was under 10 nM. In assay [1] (setting [2]), the Dmax is over 75% and the DC50 is under 10 nM.

For the compound `Cc1ncsc1-c1ccc([C@H](C)NC(=O)[C@@H]2C[C@@H](O)CN2C(=O)[C@H](c2cc(-c3cnc(N4CCN(c5cc6nnc(-c7ccccc7O)cc6n5C)CC4)nc3)no2)C(C)C)cc1` [Compound 29, (2S,4R)-4-hydroxy-1-[(2S)-2-[3-(2-{4-[3-(2-hydroxyphenyl)-5-methylpyrrolo[3,2-c]pyridazin-6-yl]piperazin-1-yl}pyrimidin-5-yl)-1,2-oxazol-5-yl]-3-methylbutanoyl]-N-[(1S)-1-[4-(4-methyl-1,3-thiazol-5-yl)phenyl]ethyl]pyrrolidine-2-carboxamide], on HiBit-BRM fusion protein, the “BRM HiBit Degradation Maximum (%)” value is given as “A (“A” indicates maximum degradation ≥75%)” and the DC50 is over 10 nM. For the same compound, in assay [1] (setting [2]), the Dmax is under 50%.

On to `Cc1ncsc1-c1ccc([C@H](C)NC(=O)[C@@H]2C[C@@H](O)CN2C(=O)[C@@H](c2cc(OCCN3CCC(O)(c4cc5nnc(-c6ccccc6O)cc5n4C)CC3)no2)C(C)C)cc1` [Compound 30, (2S,4R)-4-hydroxy-1-[(2R)-2-[3-(2-{4-hydroxy-4-[3-(2-hydroxyphenyl)-5-methylpyrrolo[3,2-c]pyridazin-6-yl]piperidin-1-yl}ethoxy)-1,2-oxazol-5-yl]-3-methylbutanoyl]-N-[(1S)-1-[4-(4-methyl-1,3-thiazol-5-yl)phenyl]ethyl]pyrrolidine-2-carboxamide], for which, on HiBit-BRM fusion protein, the “BRM HiBit Degradation Maximum (%)” value was “A (“A” indicates maximum degradation ≥75%)” and the DC50 was over 10 nM. In assay [1] (setting [2]), the Dmax was over 75% and the DC50 was over 100 nM.

Take `Cc1ncsc1-c1ccc([C@H](C)NC(=O)[C@@H]2C[C@@H](O)CN2C(=O)[C@@H](c2cc(OCCN3CC(n4ccc5nnc(-c6ccccc6O)cc54)C3)no2)C(C)C)cc1` [Compound 31, (2S,4R)-4-hydroxy-1-[(2R)-2-[3-(2-{3-[3-(2-hydroxyphenyl)pyrrolo[3,2-c]pyridazin-5-yl]azetidin-1-yl}ethoxy)-1,2-oxazol-5-yl]-3-methylbutanoyl]-N-[(1S)-1-[4-(4-methyl-1,3-thiazol-5-yl)phenyl]ethyl]pyrrolidine-2-carboxamide]: at HiBit-BRM fusion protein, the “BRM HiBit Degradation Maximum (%)” value was “B (“B” indicates maximum degradation ≥50%)” and the DC50 is over 10 nM. Moreover, the Dmax in assay [1] (setting [2]) was under 50%.

As for `Cc1ncsc1-c1ccc([C@H](C)NC(=O)[C@@H]2C[C@@H](O)CN2C(=O)[C@@H](c2cc(OCCN3CC(n4cc(C(F)F)c5nnc(-c6ccccc6O)cc54)C3)no2)C(C)C)cc1` [Compound 32, (2S,4R)-1-((R)-2-(3-(2-(3-(7-(difluoromethyl)-3-(2-hydroxyphenyl)-5H-pyrrolo[3,2-c]pyridazin-5-yl)azetidin-1-yl)ethoxy)isoxazol-5-yl)-3-methylbutanoyl)-4-hydroxy-N—((S)-1-(4-(4-methylthiazol-5-yl)phenyl)ethyl)pyrrolidine-2-carboxamide], the “BRM HiBit Degradation Maximum (%)” value at HiBit-BRM fusion protein is on record as “C (“C” indicates maximum degradation <50%)”. For the same compound, in assay [1] (setting [2]), the Dmax was under 50%.
